Drawing on PMC6934184, “Selective DNA-PKcs inhibition extends the therapeutic index of localized radiotherapy and chemotherapy” (The Journal of Clinical Investigation, 2019), this text covers inhibition for 1 compound.

This experiment has as its target T1, MST4 (Homo sapiens, UniProt Q9P289).
T1 construct: purchased Thermo Fisher Scientific (Life Technologies) SelectScreen
Kind of experiment: SelectScreen Z'LYTE. Format: biochemical. An outline of the steps:
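Percent values come from Thermo SelectScreen profiling of NU5455, combining activity and binding assays. CSF1R was run in Z'LYTE format at Km app ATP, and CAMK1 in Adapta format with ATP listed at 10.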

Broadly, the inhibition is the change of the read-out against control, counted positive when it falls.

T1 sequence (Q9P289 whole entry): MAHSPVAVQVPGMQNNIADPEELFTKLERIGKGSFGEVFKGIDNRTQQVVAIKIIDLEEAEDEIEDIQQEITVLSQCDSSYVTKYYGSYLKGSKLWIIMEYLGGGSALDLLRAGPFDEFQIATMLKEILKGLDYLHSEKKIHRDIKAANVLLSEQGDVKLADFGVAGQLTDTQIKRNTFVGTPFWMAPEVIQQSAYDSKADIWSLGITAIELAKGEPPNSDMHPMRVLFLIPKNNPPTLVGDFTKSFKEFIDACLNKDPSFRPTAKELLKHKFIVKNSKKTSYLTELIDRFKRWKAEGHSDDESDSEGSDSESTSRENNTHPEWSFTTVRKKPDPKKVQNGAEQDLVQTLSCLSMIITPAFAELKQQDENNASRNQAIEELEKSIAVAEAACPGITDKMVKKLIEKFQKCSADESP

Compound `CN(C(=O)CN1CCOCC1)c1ccc2sc3c(-c4cccc5c(=O)cc(N6CC7CCC(C6)O7)oc45)cccc3c2c1` [NU5455] had an inhibition at 1 µM of 6.9%.
